The record followed here is patent US10105357B2, “Indication of antibiotic drugs for preparation of cancer inhibition pharmaceutical composition” (LAUNX BIOMEDICAL CO., LTD., priority 2014, dated 2018).

As usually defined, the viability is a read-out of living cells in per cent, often relative to untreated cells.

What all share (assay type): cell-based, human
The test system of assay [1] is A375 (Amelanotic Melanoma). Nature of the assay: Cell viability analysis, skin cancer A375. Particulars: Homo sapiens, A-375, 72 h.
Assay [2] concerns PC3 (p53−) (Prostate Adenocarcinoma). Briefly: Cell viability analysis, prostate cancer PC3. The settings on record: Homo sapiens, 72 h.
Assay [3] has as its system HeLa (Cervix Adenocarcinoma). Nature of the assay: Cell viability analysis, cervical cancer HeLa. Particulars: Homo sapiens, HeLa, 72 h.
The subject of assay [4] is HL-60 (Acute Promyelocytic Leukemia). Nature of the assay: Cell viability analysis, leukemia HL-60. The settings on record: Homo sapiens, HL-60, 72 h.
In assay [5] the test system is TSGH-8301 (Urinary Bladder Carcinoma). Briefly: Cell viability analysis, bladder cancer TSGH-8301. The settings on record: Homo sapiens, 72 h.
For assay [6], the system named is A549 (Lung Adenocarcinoma). Nature of the assay: Cell viability analysis, lung cancer A549. Particulars: Homo sapiens, A549, 72 h.
Assay [7] has as its system MCF7 (Mammary Gland, Adenocarcinoma). Nature of the assay: Cell viability analysis, breast cancer MCF7. The settings on record: Homo sapiens, MCF7, 72 h.
For assay [8], the system named is LoVo (Colorectal Adenocarcinoma). Nature of the assay: Cell viability analysis, colon cancer LoVo. Particulars: Homo sapiens, LoVo, 72 h, read-out: cell viability (survival rate), LoVo, drug 10 μM, 72 hours, WST-1, OD450 nm. In general terms: Formazan colour is commonly taken as a measure of viable cells.
Assay [9] concerns cancer cell lines. Nature of the assay: Cell viability analysis (WST-1) on cancer cell lines. Particulars: drug 10 μM, 72 hours, WST-1; Table 3.
Assay [10] concerns HI650 (Lung Adenocarcinoma). Briefly: Cell viability analysis, lung cancer HI650. Particulars: Homo sapiens, NCI-H1650, 72 h.
For assay [11], the system named is HepG2 (Hepatocellular Carcinoma). Nature of the assay: Cell viability analysis, hepatic cancer HepG2. The settings on record: Homo sapiens, HepG2, 72 h.
The test system of assay [12] is MKN-45 (Gastric Adenocarcinoma). Briefly: Cell viability analysis, gastric cancer MKN-45. The settings on record: Homo sapiens, MKN-45, 72 h.
In assay [13] the test system is AGS (Gastric Adenocarcinoma). Nature of the assay: Cell viability analysis, gastric cancer AGS. The settings on record: Homo sapiens, 72 h.
[14] abbreviates: drug 10 μM, 72 hours, WST-1, OD450 nm, read-out: cell viability (survival rate), A375.
Where [15] appears, read: drug 10 μM, 72 hours, WST-1, OD450 nm, read-out: cell viability (survival rate), PC3.
[16] abbreviates: drug 10 μM, 72 hours, WST-1, OD450 nm, read-out: cell viability (survival rate), HeLa.
[17] abbreviates: drug 10 μM, 72 hours, WST-1, OD450 nm, read-out: cell viability (survival rate), HL-60.
Setting [18] is: drug 10 μM, 72 hours, WST-1, OD450 nm, read-out: cell viability (survival rate), TSGH.
Where [19] appears, read: drug 10 μM, 72 hours, WST-1, OD450 nm, read-out: cell viability (survival rate), A549.
Where [20] appears, read: drug 10 μM, 72 hours, WST-1, OD450 nm, read-out: cell viability (survival rate), MCF7.
The mark [21] stands for this setting: drug 10 μM, 72 hours, WST-1, OD450 nm, read-out: cell viability (survival rate), H1650.
Where [22] appears, read: drug 10 μM, 72 hours, WST-1, OD450 nm, read-out: cell viability (survival rate), HepG2.
Where [23] appears, read: drug 10 μM, 72 hours, WST-1, OD450 nm, read-out: cell viability (survival rate), MKN-45.
The mark [24] stands for this setting: drug 10 μM, 72 hours, WST-1, OD450 nm, read-out: cell viability (survival rate), AGS.
[25] abbreviates: read-out: cell viability (survival rate), A375, drug 10 μM, 72 hours, WST-1, OD450 nm.
[26] abbreviates: read-out: cell viability (survival rate), PC3, drug 10 μM, 72 hours, WST-1, OD450 nm.
[27] abbreviates: read-out: cell viability (survival rate), HeLa, drug 10 μM, 72 hours, WST-1, OD450 nm.
The mark [28] stands for this setting: read-out: cell viability (survival rate), HL-60, drug 10 μM, 72 hours, WST-1, OD450 nm.
Setting [29] is: read-out: cell viability (survival rate), TSGH, drug 10 μM, 72 hours, WST-1, OD450 nm.
Setting [30] is: read-out: cell viability (survival rate), A549, drug 10 μM, 72 hours, WST-1, OD450 nm.
[31] abbreviates: read-out: cell viability (survival rate), MCF7, drug 10 μM, 72 hours, WST-1, OD450 nm.
The mark [32] stands for this setting: read-out: cell viability (survival rate), H1650, drug 10 μM, 72 hours, WST-1, OD450 nm.
[33] abbreviates: read-out: cell viability (survival rate), HepG2, drug 10 μM, 72 hours, WST-1, OD450 nm.
[34] abbreviates: read-out: cell viability (survival rate), MKN-45, drug 10 μM, 72 hours, WST-1, OD450 nm.
The mark [35] stands for this setting: read-out: cell viability (survival rate), AGS, drug 10 μM, 72 hours, WST-1, OD450 nm.

Structures can show the parent of a compound that is named as a salt. Where two headings read alike, the source gives them in different places.

Regarding `CCCCCCCCCCCC[N+](C)(C)CCOc1ccccc1` [Domiphen Bromide], the viability at 10 µM in assay [1] (setting [14]) turned out to be 36.3%; in [2] (setting [15]), 38.9%; in assay [3] (setting [16]), 38%; in assay [4] (setting [17]), 30%; in assay [5] (setting [18]), 37.3%; in assay [6] (setting [19]) it was 28.7%. Also, the viability at 10 µM in assay [7] (setting [20]) is 31.3%; in [8], 48.7%; in [10] (setting [21]) it was 46.5%; in assay [11] (setting [22]) it was 62.1%; in assay [12] (setting [23]), 44.4%; in assay [13] (setting [24]), 32.5%. Also, in [9], the “inhibition effect on different cancer cell lines” value is “significant inhibition effect”.
For the compound `COc1cc(Cc2cnc(N)nc2N)cc(OC)c1OC` [Trimethoprim], the viability at 10 µM in [1] (setting [25]) came out at 83.6%; in [2] (setting [26]), 151%; in assay [3] (setting [27]) it was 89%; in assay [4] (setting [28]), 96.8%; in [5] (setting [29]) it was 92.4%; in assay [6] (setting [30]), 125%. Besides, the viability at 10 µM in assay [7] (setting [31]) is 104%; in [8] it was 98.7%; in assay [10] (setting [32]), 108%; in assay [11] (setting [33]) it was 102%; in [12] (setting [34]), 73.6%; in assay [13] (setting [35]), 97.7%. In [9], the “inhibition effect on different cancer cell lines” value was “significant inhibition effect”.
`CC(C)NCC(O)c1ccc(O)c(O)c1` (stereo not drawn) [Isoprenaline hydrochloride]: the viability at 10 µM in assay [1] (setting [25]) came out at 90%; in assay [2] (setting [26]) it was 73.6%; in assay [3] (setting [27]) it was 91.1%; in [4] (setting [28]) it was 96.8%; in assay [5] (setting [29]), 81.6%; in assay [6] (setting [30]) it was 56.1%. Besides, the viability at 10 µM in assay [7] (setting [31]) came to 73.2%; in assay [8] it was 80.6%; in assay [10] (setting [32]), 39.9%; in assay [11] (setting [33]), 81.4%; in [12] (setting [34]) it was 79.6%; in [13] (setting [35]) it was 72%. Besides, the “inhibition effect on different cancer cell lines” value in assay [9] is “significant inhibition effect”.
With `Cc1cn([C@H]2C=C[C@@H](CO)O2)c(=O)[nH]c1=O` [Stavudine], the viability at 10 µM in assay [1] (setting [14]) worked out at 56.1%; in assay [2] (setting [15]), 73.5%; in [3] (setting [16]), 98.1%; in assay [4] (setting [17]), 96%; in assay [5] (setting [18]), 112%; in assay [6] (setting [19]), 38.9%. The viability at 10 µM in assay [7] (setting [20]) was 56.6%; in assay [8], 70.7%; in assay [10] (setting [21]), 50.2%; in [11] (setting [22]) it was 97.1%; in assay [12] (setting [23]), 66.8%; in assay [13] (setting [24]), 39.2%. The “inhibition effect on different cancer cell lines” value in assay [9] is recorded as “significant inhibition effect”.
In the case of `O=C(O)Cc1ccccc1Nc1c(Cl)cccc1Cl` [Diclofenac Potassium], the viability at 10 µM in [1] (setting [25]) is 51.5%; in assay [2] (setting [26]) it was 63.3%; in assay [3] (setting [27]), 76.1%; in assay [4] (setting [28]) it was 96.3%; in assay [5] (setting [29]) it was 122%; in assay [6] (setting [30]), 81.7%. In addition, the viability at 10 µM in assay [7] (setting [31]) was found to be 76.3%; in assay [8], 85%; in [10] (setting [32]) it was 43.9%; in assay [11] (setting [33]), 107%; in assay [12] (setting [34]), 40.5%; in assay [13] (setting [35]), 91.4%. Moreover, the “inhibition effect on different cancer cell lines” value in assay [9] was “significant inhibition effect”.
Consider `Clc1ccc(CCC(Cn2ccnc2)Sc2c(Cl)cccc2Cl)cc1` (stereo not drawn) [Butoconazole nitrate], for which the viability at 10 µM was found to be 102% in assay [1] (setting [25]); 57.1% in assay [2] (setting [26]); 131% in [3] (setting [27]); 41.3% in [4] (setting [28]); 86% in assay [5] (setting [29]); 89.6% in assay [6] (setting [30]). The viability at 10 µM amounted to 72.9% in [7] (setting [31]); 112% in [8]; 78.2% in assay [10] (setting [32]); 114% in [11] (setting [33]); 48.7% in [12] (setting [34]); 78.7% in assay [13] (setting [35]). The “inhibition effect on different cancer cell lines” value in assay [9] is listed as “significant inhibition effect”.
Take `CC1=C(C(=O)O)N2C(=O)[C@@H](NC(=O)[C@H](N)c3ccccc3)[C@H]2SC1` [Cephalexin (Cefalexin), Cephalexin]: the viability at 10 µM in assay [1] (setting [25]) was determined as 92.7%; in [2] (setting [26]), 57.5%; in assay [3] (setting [27]), 76.2%; in assay [4] (setting [28]) it was 95.2%; in [5] (setting [29]) it was 69.2%; in assay [6] (setting [30]) it was 80.6%. Further, the viability at 10 µM stood at 96.1% in [7] (setting [31]); 85.9% in [8]; 71.2% in assay [10] (setting [32]); 109% in [11] (setting [33]); 94.9% in assay [12] (setting [34]); 59.6% in assay [13] (setting [35]). Further, in assay [9], the “inhibition effect on different cancer cell lines” value was “significant inhibition effect”.
In the case of `Cc1cccc(C(C)c2cnc[nH]2)c1C` (stereo not drawn) [Medetomidine HCl], the viability at 10 µM worked out at 59.7% in assay [1] (setting [25]); 65.6% in [2] (setting [26]); 78.4% in assay [3] (setting [27]); 84.5% in assay [4] (setting [28]); 104% in assay [5] (setting [29]); 73.7% in assay [6] (setting [30]). In addition, the viability at 10 µM turned out to be 72.3% in assay [7] (setting [31]); 79.4% in assay [8]; 49.8% in assay [10] (setting [32]); 91.9% in assay [11] (setting [33]); 37.4% in assay [12] (setting [34]); 108% in assay [13] (setting [35]). Also, the “inhibition effect on different cancer cell lines” value in [9] is given as “significant inhibition effect”.
For the compound `C[C@@H](O)[C@H]1C(=O)N2C(C(=O)[O-])=C(SC3Cn4cnc[n+]4C3)[C@H](C)[C@H]12` (stereo partly drawn) [Biapenem], the viability at 10 µM came to 60.4% in assay [1] (setting [25]); 80.3% in assay [2] (setting [26]); 54% in assay [3] (setting [27]); 95.5% in [4] (setting [28]); 117% in assay [5] (setting [29]); 90.1% in assay [6] (setting [30]). Further, the viability at 10 µM came to 136% in assay [7] (setting [31]); 88.7% in assay [8]; 42.2% in assay [10] (setting [32]); 66.4% in assay [11] (setting [33]); 81.5% in [12] (setting [34]); 75.1% in [13] (setting [35]). In assay [9], the “inhibition effect on different cancer cell lines” value is recorded as “significant inhibition effect”.
